Experimental findings from ChEMBL document CHEMBL3991601, “The target landscape of clinical kinase drugs” (Science, 2017) are described below.

Targets include Myosin-14 (Homo sapiens, UniProt Q7Z406); Aurora kinase B (Homo sapiens, UniProt Q96GD4); Obg-like ATPase 1 (Homo sapiens, UniProt Q9NTK5).
For assay [1], the target named is T1, Mitogen-activated protein kinase kinase kinase kinase 2 (Homo sapiens, UniProt Q12851).
T1 sequence (Q12851 whole entry): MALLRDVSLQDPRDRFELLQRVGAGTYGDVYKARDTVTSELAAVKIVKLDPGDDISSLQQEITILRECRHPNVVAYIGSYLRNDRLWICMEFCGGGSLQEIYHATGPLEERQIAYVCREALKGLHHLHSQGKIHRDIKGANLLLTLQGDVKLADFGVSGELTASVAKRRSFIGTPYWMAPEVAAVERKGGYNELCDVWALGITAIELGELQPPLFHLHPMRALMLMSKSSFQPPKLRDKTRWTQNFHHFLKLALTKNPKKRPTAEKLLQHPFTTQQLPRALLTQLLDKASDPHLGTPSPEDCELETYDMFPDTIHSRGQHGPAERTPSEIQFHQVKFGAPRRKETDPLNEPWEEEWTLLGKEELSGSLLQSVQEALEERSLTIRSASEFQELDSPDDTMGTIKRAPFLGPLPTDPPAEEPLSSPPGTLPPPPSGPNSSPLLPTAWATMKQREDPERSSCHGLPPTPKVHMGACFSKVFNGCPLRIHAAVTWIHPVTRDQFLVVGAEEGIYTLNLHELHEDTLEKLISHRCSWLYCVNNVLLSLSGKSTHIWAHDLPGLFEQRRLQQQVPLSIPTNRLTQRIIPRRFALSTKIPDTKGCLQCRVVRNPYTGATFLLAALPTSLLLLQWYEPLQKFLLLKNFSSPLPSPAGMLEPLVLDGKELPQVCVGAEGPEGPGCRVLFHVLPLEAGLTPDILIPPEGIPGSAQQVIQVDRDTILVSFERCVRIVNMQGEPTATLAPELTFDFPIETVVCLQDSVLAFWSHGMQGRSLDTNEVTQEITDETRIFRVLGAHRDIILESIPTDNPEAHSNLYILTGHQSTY

In assay [2] the target is 26S proteasome regulatory subunit 6B (Homo sapiens, UniProt P43686).
26S proteasome regulatory subunit 6B, sequence (P43686 whole entry): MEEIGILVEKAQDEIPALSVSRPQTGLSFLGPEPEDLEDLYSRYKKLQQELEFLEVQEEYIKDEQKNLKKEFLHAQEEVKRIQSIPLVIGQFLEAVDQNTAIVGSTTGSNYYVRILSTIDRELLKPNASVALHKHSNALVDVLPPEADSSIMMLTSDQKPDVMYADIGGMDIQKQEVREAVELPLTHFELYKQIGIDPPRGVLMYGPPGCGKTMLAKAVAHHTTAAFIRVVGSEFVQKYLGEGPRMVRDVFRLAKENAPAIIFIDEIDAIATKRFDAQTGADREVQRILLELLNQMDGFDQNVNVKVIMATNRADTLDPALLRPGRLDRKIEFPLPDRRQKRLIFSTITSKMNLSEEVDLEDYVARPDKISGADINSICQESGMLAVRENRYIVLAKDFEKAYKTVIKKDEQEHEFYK
In assay [3] the target is T2, Serine/threonine-protein kinase STK11 (Homo sapiens, UniProt Q15831).
T2 sequence (Q15831 whole entry): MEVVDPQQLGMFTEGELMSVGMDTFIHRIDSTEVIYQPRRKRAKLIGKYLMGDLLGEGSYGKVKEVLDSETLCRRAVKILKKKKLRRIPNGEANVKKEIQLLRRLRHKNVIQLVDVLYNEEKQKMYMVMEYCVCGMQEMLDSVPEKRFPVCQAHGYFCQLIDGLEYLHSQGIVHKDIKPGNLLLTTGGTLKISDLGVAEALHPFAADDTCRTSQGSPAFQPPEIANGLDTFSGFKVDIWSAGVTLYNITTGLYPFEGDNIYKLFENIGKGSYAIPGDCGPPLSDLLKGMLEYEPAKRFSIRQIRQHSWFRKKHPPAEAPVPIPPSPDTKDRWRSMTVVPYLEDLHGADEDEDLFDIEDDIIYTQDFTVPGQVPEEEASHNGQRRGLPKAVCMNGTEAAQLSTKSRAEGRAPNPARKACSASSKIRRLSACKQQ

Assay [4] deals with NADH dehydrogenase [ubiquinone] 1 alpha subcomplex subunit 13 (Homo sapiens, UniProt Q9P0J0).
NADH dehydrogenase [ubiquinone] 1 alpha subcomplex subunit 13, sequence (Q9P0J0 whole entry, one chain of several): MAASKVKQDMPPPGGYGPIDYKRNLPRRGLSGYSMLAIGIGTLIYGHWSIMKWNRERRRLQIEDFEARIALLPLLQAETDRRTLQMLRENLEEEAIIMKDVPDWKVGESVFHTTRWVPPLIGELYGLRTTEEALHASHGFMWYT
Assay [5] deals with DNA topoisomerase 2-alpha (Homo sapiens, UniProt P11388).
Assay [6] has as its target T3, Ribosyldihydronicotinamide dehydrogenase [quinone] (Homo sapiens, UniProt P16083).
T3 sequence (P16083 whole entry): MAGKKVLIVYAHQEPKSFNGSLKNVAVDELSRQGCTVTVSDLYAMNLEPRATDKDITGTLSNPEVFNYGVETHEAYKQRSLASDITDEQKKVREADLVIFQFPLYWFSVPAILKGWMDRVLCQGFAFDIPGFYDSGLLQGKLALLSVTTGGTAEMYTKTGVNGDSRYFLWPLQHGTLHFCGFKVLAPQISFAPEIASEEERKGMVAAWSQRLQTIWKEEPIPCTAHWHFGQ

The target in assay [7] is Protein-tyrosine kinase 2-beta (Homo sapiens, UniProt Q14289).
Protein-tyrosine kinase 2-beta, sequence (Q14289 whole entry): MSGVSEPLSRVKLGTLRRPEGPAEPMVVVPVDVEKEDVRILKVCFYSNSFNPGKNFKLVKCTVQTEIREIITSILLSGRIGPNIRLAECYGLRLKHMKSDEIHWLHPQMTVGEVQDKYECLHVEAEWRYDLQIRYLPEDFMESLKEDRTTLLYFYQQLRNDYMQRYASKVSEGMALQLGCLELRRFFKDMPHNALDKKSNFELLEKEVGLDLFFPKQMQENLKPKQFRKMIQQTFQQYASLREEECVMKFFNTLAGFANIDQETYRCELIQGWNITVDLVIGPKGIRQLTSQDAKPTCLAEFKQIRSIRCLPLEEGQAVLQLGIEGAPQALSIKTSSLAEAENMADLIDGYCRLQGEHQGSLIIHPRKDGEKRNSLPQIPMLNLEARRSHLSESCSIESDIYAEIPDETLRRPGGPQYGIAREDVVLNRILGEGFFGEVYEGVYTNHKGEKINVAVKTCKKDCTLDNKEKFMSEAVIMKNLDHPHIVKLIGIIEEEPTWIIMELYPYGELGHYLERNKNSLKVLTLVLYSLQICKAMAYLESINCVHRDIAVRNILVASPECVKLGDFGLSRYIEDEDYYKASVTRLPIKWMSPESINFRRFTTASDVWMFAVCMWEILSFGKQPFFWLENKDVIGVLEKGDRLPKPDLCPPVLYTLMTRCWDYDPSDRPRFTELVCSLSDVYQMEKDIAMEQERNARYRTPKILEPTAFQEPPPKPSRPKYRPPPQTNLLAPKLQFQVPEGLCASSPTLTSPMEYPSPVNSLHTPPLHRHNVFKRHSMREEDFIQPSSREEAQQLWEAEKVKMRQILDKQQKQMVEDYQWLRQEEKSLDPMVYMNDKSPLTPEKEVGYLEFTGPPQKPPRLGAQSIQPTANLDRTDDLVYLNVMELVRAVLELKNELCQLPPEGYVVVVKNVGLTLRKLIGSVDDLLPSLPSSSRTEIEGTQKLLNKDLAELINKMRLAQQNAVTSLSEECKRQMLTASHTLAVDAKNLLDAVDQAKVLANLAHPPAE
Assay [8] deals with G protein-coupled receptor kinase 6 (Homo sapiens, UniProt P43250).
For assay [9], the target named is Serine/threonine-protein kinase PAK 4 (Homo sapiens, UniProt O96013).
The target in assay [10] is T4, Serine/threonine-protein kinase NLK (Homo sapiens, UniProt Q9UBE8).
T4 sequence (Q9UBE8 whole entry): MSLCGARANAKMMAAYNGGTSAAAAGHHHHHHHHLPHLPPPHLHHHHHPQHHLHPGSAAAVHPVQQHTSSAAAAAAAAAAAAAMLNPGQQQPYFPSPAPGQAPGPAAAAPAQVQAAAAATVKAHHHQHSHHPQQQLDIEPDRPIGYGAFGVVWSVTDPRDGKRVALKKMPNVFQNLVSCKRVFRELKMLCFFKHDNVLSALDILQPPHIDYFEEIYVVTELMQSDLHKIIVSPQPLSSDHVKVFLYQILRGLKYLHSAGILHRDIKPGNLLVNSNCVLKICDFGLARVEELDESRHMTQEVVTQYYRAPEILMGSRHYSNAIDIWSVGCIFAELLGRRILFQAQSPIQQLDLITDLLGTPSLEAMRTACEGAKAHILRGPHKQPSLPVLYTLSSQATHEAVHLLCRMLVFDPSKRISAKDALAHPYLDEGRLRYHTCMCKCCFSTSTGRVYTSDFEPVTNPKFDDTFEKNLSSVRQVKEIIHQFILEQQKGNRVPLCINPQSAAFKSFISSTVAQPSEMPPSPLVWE

Assay [11] deals with DnaJ homolog subfamily A member 1 (Homo sapiens, UniProt P31689).
DnaJ homolog subfamily A member 1, sequence (P31689 whole entry): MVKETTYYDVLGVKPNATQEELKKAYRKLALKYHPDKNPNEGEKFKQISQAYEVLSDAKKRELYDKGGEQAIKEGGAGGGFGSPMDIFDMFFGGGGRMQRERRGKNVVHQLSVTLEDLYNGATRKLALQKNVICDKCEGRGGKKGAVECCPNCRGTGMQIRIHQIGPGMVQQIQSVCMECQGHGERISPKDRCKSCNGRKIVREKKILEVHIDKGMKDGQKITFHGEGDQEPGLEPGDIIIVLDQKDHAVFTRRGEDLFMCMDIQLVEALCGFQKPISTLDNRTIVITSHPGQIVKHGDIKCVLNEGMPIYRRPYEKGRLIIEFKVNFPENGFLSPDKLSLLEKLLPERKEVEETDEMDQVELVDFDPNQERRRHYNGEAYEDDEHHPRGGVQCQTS
Assay [12] addresses Mitogen-activated protein kinase 3 (Homo sapiens, UniProt P27361).
Assay [13] addresses Serine/threonine-protein kinase MRCK gamma (Homo sapiens, UniProt Q6DT37).

Calls of active or inactive are those of the source.

In general, Kd refers to a measure of binding affinity in units of concentration.
Also: in the data inactive means no Kd found up to 30 µM.

Obg-like ATPase 1, sequence (Q9NTK5 whole entry, looked up): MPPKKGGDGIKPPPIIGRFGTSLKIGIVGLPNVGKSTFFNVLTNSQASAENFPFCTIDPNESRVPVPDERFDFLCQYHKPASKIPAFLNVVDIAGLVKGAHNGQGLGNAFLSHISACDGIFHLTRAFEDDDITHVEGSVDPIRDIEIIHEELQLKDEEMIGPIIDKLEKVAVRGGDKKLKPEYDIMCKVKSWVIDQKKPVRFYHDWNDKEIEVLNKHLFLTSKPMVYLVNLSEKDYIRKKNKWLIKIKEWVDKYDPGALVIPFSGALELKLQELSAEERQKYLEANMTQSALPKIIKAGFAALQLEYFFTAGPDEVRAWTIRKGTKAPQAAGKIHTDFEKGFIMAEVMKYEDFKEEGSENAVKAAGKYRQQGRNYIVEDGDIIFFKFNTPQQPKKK
Myosin-14, sequence (Q7Z406 whole entry): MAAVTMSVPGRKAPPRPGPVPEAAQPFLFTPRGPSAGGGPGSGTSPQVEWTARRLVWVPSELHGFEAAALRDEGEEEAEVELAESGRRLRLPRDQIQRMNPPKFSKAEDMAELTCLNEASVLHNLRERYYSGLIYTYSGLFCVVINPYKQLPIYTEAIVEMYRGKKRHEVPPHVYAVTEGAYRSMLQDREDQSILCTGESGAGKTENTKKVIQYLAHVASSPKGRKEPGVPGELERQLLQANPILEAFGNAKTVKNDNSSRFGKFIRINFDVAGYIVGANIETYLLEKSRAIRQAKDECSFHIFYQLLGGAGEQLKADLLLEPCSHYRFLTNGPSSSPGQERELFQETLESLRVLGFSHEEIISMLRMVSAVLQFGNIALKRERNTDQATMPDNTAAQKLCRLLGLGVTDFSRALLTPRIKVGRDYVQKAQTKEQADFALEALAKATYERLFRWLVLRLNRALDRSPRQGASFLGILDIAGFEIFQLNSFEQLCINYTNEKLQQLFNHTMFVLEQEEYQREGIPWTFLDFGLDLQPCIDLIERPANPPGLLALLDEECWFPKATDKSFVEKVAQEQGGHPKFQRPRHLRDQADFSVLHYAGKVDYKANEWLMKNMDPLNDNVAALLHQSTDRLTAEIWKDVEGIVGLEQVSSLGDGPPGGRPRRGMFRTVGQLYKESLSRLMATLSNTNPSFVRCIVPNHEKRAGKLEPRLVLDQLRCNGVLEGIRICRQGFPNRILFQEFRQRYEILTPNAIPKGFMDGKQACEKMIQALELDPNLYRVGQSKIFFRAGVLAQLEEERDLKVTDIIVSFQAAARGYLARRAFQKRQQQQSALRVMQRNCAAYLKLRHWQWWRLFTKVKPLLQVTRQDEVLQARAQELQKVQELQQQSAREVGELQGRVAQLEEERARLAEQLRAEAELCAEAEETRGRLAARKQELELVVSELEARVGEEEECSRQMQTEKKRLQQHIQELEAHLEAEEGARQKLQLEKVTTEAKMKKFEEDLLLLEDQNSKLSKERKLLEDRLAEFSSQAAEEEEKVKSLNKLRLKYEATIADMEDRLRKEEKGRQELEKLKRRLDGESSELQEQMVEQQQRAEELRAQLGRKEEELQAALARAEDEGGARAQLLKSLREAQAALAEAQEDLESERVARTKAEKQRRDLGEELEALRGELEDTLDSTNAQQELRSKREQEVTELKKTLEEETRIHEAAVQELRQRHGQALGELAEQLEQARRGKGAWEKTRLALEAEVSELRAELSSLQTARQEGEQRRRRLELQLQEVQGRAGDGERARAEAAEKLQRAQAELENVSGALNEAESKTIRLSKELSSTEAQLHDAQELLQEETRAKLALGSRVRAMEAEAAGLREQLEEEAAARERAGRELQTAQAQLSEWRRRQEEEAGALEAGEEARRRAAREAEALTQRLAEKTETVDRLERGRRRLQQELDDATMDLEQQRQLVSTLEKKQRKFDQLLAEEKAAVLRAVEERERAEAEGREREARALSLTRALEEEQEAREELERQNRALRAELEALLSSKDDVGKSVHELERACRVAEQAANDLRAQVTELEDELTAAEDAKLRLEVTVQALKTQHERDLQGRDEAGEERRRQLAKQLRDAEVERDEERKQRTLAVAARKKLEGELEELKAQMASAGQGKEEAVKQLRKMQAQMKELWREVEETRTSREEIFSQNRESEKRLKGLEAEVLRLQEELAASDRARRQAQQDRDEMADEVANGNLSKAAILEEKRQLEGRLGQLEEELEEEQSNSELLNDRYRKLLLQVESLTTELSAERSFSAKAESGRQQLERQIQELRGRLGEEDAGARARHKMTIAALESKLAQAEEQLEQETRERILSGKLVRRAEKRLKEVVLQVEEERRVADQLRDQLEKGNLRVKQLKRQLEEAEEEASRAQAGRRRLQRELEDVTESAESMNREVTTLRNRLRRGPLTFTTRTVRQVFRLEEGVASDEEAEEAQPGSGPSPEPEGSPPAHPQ
Aurora kinase B, sequence (Q96GD4 whole entry): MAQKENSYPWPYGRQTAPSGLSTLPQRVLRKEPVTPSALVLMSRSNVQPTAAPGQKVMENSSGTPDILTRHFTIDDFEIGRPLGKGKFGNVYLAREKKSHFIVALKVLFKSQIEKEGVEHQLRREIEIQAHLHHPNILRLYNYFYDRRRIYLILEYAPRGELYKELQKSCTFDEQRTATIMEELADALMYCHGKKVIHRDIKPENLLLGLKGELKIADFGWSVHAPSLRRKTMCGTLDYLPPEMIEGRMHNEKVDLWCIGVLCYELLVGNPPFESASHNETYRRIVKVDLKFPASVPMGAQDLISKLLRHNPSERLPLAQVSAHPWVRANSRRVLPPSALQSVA

As for `CCNC(=O)C#Cc1ccc2c(c1)NC(=O)/C2=C(\Nc1ccc(CN(C)C)cc1)c1ccccc1`, the Kd (in assay [1]; in assay [2]; at Myosin-14; in assay [3]; in [4]; in assay [5]) was > 30 µM (inactive) each time. For the same molecule, the Kd in assay [6] is > 30 µM (inactive); in assay [7] it was > 30 µM (inactive); in assay [8], > 30 µM (inactive); in assay [9] it was > 30 µM (inactive); at Aurora kinase B, 0.059 µM (active); in [10], > 30 µM (inactive). For the same molecule, the Kd (at Obg-like ATPase 1; in [11]; in [12]) was > 30 µM (inactive) in each case.
Turning to `COCc1c(-c2ccc(NC(=O)Nc3cc(C(F)(F)F)ccc3F)c(F)c2)c2c(N)ncnn2c1CN1CCOCC1`, the equilibrium dissociation constant (Kd) in assay [1] was 4.16 µM (active); in assay [2], > 30 µM (inactive); on Myosin-14 it was > 30 µM (inactive); in assay [3] it was > 30 µM (inactive); in assay [4] it was > 30 µM (inactive); in [5], > 30 µM (inactive). Besides, the Kd (in assay [6]; in assay [7]; in assay [8]; in assay [9]; on Aurora kinase B; in assay [10]) was > 30 µM (inactive) in each case. Further, the Kd (on Obg-like ATPase 1; in [11]; in assay [12]) was > 30 µM (inactive) throughout.
Take `COc1cc(Nc2ncc3c(n2)-c2ccc(Cl)cc2C(c2c(F)cccc2OC)=NC3)ccc1C(=O)O` [ALISERTIB]: the Kd in assay [2] is > 30 µM (inactive); on Myosin-14, > 30 µM (inactive); in assay [13] it was > 30 µM (inactive); in assay [3], > 30 µM (inactive); in assay [4], 3.92 µM; in assay [5] it was > 30 µM (inactive). For the same molecule, the Kd (in [6]; in assay [7]; in assay [8]; in assay [10]; at Obg-like ATPase 1; in assay [12]) was > 30 µM (inactive) throughout.
On to `O=C(Nc1c[nH]nc1-c1nc2cc(CN3CCOCC3)ccc2[nH]1)NC1CC1` [AT-9283], for which the Kd (in [1]; in [2]; at Myosin-14; in assay [13]; in assay [3]; in assay [4]) was > 30 µM (inactive) each time. Further, the Kd in assay [5] is > 30 µM (inactive); in [6], > 30 µM (inactive); in [7], > 30 µM (inactive); in [8], 13.6 µM; at Aurora kinase B, 0.017 µM (active); in [10], > 30 µM (inactive). The Kd (at Obg-like ATPase 1; in assay [11]; in [12]) was > 30 µM (inactive) in each case.
For `CNC(=O)c1ccccc1Sc1ccc2c(/C=C/c3ccccn3)n[nH]c2c1` [AXITINIB], the Kd (in assay [2]; at Myosin-14; in assay [4]; in [5]; in [6]; in [8]) was > 30 µM (inactive) each time. Moreover, the Kd (on Obg-like ATPase 1; in assay [11]) was > 30 µM (inactive) each time.
For the molecule `C[C@@H](Oc1cc(-n2cnc3ccc(CN4CCN(C)CC4)cc32)sc1C(N)=O)c1ccccc1C(F)(F)F` [GSK-461364], the Kd (in assay [2]; on Myosin-14; in [4]; in assay [5]; in assay [6]; in assay [8]) was > 30 µM (inactive) in each case. For the same molecule, the Kd (at Obg-like ATPase 1; in assay [11]) was > 30 µM (inactive) each time.
For the molecule `O=C(NOCCO)c1cc(CN2OCCCC2=O)c(F)c(F)c1Nc1ccc(I)cc1F` [RO-4987655], the Kd (in [2]; on Myosin-14; in [4]; in [5]; in [6]; in [8]) was > 30 µM (inactive) each time. For the same molecule, the Kd (at Obg-like ATPase 1; in assay [11]) was > 30 µM (inactive) each time.
As for `CCS(=O)(=O)c1cccc(-c2cc(C(=O)NC3CCN(C)CC3)c(C)c3[nH]c4ncc(C)cc4c23)c1` [TAK-901], the Kd (in [1]; in assay [2]; on Myosin-14; in assay [13]; in [3]; in assay [4]) was > 30 µM (inactive) in each case. The Kd is 88.9 µM (active) in [6]; 0.19 µM (active) in [7]; 1.19 µM in assay [8]; > 30 µM (inactive) in assay [9]; 0.044 µM (active) at Aurora kinase B; > 30 µM (inactive) in assay [10]. The Kd (on Obg-like ATPase 1; in [11]; in [12]) was > 30 µM (inactive) in each case.
For the molecule `C[C@@H](N)c1ccc(C(=O)Nc2ccnc3[nH]ccc23)cc1` [Y-39983], the Kd (in assay [1]; in [2]; on Myosin-14; in assay [3]; in [4]; in assay [5]) was > 30 µM (inactive) each time. Moreover, the Kd (in assay [6]; in assay [7]; in [8]; in assay [9]; on Aurora kinase B; in [10]) was > 30 µM (inactive) each time. In addition, the Kd (at Obg-like ATPase 1; in [11]; in assay [12]) was > 30 µM (inactive) each time.
